Like-named read-outs stand apart in the source and are kept apart here.
Columns and labels:
[1] = drug-related adverse events, safety population, trials A and B
[2] = human, in vivo, cited from earlier work
[3] = single dose 100 mg racemic tramadol, cited from earlier work
cold-induced pain = experiment: cold pressor test (cold-induced pain), trials A and B; format: in vivo, human
[4] = respiration and other vital signs, trials A and B; conditions: trial A
pupil diameter = experiment: pupillometry, trial A; format: in vivo, human; conditions: after dosing
[5] = steady-state pharmacokinetics, 50 mg tramadol vs 20 mg desmetramadol every 6 hours, nine doses, trials A and B (B with paroxetine); conditions: after tramadol dosing, with vs without paroxetine
[6] = trial A (n = 43, males), 0-10 VAS
[7] = trial B (n = 18, females), with paroxetine
[8] = trial B (n = 18, females), with paroxetine, 0-10 VAS
[9] = trial B (n = 42, males), with paroxetine
[10] = trial B (n = 42, males), with paroxetine, 0-10 VAS

With `COc1cccc(C2(O)CCCCC2CN(C)C)c1` (racemic) [tramadol] the Deaths ([1]; trial A) was 0 (0) N (%), the “Severe AEs” value ([1]; trial A) was 0 (0) N (%) and the “subjects reporting drug-related AEs” value ([1]; trial A) was 49%. For the same molecule, the “All AEs” value ([1]; trial A (N = 43)) was 20 (49) N (%), the Dizziness ([1]; trial A, all subjects) was 5 (12) N (%) and the Euphoria ([1]; trial A, all subjects) was 0 (0) N (%). The Feel abnormal ([1]; trial A, all subjects) was 1 (2) N (%), the Feel hot ([1]; trial A, all subjects) was 0 (0) N (%) and the Headache ([1]; trial A, all subjects) was 7 (17) N (%). The Nausea ([1]; trial A, all subjects) was 5 (12) N (%), the Presyncope ([1]; trial A, all subjects) was 0 (0) N (%) and the Pruritus ([1]; trial A, all subjects) was 4 (10) N (%). For the same molecule, the Somnolence ([1]; trial A, all subjects) was 2 (5) N (%), the Spasticity ([1]; trial A, all subjects) was 1 (2) N (%) and the Sweating ([1]; trial A, all subjects) was 0 (0) N (%). For the same molecule, the Vomiting ([1]; trial A, all subjects) was 1 (2) N (%), the Dizziness ([1]; trial A, male) was 5 (12) N (%) and the Euphoria ([1]; trial A, male) was 0 (0) N (%). For the same molecule, the Feel abnormal ([1]; trial A, male) was 1 (2) N (%), the Feel hot ([1]; trial A, male) was 0 (0) N (%) and the Headache ([1]; trial A, male) was 7 (17) N (%). For the same molecule, the Nausea ([1]; trial A, male) was 5 (12) N (%), the Presyncope ([1]; trial A, male) was 0 (0) N (%) and the Pruritus ([1]; trial A, male) was 4 (10) N (%). The Somnolence ([1]; trial A, male) was 2 (5) N (%), the Spasticity ([1]; trial A, male) was 1 (2) N (%) and the Sweating ([1]; trial A, male) was 0 (0) N (%). The Vomiting ([1]; trial A, male) was 1 (2) N (%), the Deaths ([1]; trial B) was 0 (0) N (%) and the “Severe AEs” value ([1]; trial B) was 0 (0) N (%). For the same molecule, the “All AEs” value ([1]; trial B (N = 60), with paroxetine) was 30 (50) N (%), the Dizziness ([1]; trial B, all subjects) was 8 (13) N (%) and the Euphoria ([1]; trial B, all subjects) was 1 (2) N (%). The Feel abnormal ([1]; trial B, all subjects) was 2 (3) N (%), the Feel hot ([1]; trial B, all subjects) was 0 (0) N (%) and the Headache ([1]; trial B, all subjects) was 6 (10) N (%). For the same molecule, the Nausea ([1]; trial B, all subjects) was 8 (13) N (%), the Presyncope ([1]; trial B, all subjects) was 1 (2) N (%) and the Pruritus ([1]; trial B, all subjects) was 1 (2) N (%). For the same molecule, the Somnolence ([1]; trial B, all subjects) was 4 (7) N (%), the Spasticity ([1]; trial B, all subjects) was 3 (5) N (%) and the Sweating ([1]; trial B, all subjects) was 1 (2) N (%). For the same molecule, the Vomiting ([1]; trial B, all subjects) was 2 (3) N (%), the Dizziness ([1]; trial B, female) was 4 (22) N (%) and the Euphoria ([1]; trial B, female) was 0 (0) N (%). For the same molecule, the Feel abnormal ([1]; trial B, female) was 0 (0) N (%), the Feel hot ([1]; trial B, female) was 0 (0) N (%) and the Headache ([1]; trial B, female) was 6 (33) N (%). For the same molecule, the Nausea ([1]; trial B, female) was 2 (11) N (%), the Presyncope ([1]; trial B, female) was 0 (0) N (%) and the Pruritus ([1]; trial B, female) was 1 (6) N (%). For the same molecule, the Somnolence ([1]; trial B, female) was 2 (11) N (%), the Spasticity ([1]; trial B, female) was 0 (0) N (%) and the Sweating ([1]; trial B, female) was 0 (0) N (%). For the same molecule, the Vomiting ([1]; trial B, female) was 0 (0) N (%), the Dizziness ([1]; trial B, male) was 4 (10) N (%) and the Euphoria ([1]; trial B, male) was 1 (2) N (%). For the same molecule, the Feel abnormal ([1]; trial B, male) was 2 (5) N (%), the Feel hot ([1]; trial B, male) was 0 (0) N (%) and the Headache ([1]; trial B, male) was 0 (0) N (%). The Nausea ([1]; trial B, male) was 6 (14) N (%), the Presyncope ([1]; trial B, male) was 1 (2) N (%) and the Pruritus ([1]; trial B, male) was 0 (0) N (%). The Somnolence ([1]; trial B, male) was 2 (5) N (%), the Spasticity ([1]; trial B, male) was 3 (7) N (%) and the Sweating ([1]; trial B, male) was 1 (2) N (%). The Vomiting ([1]; trial B, male) was 2 (5) N (%), the “headache, tramadol AE profile compared to the desmetramadol AE profile” value ([1]; trial B, same subjects) was −40% and the “nausea, tramadol AE profile compared to the desmetramadol AE profile” value ([1]; trial B, same subjects) was −50%. The “presyncope, tramadol AE profile compared to the desmetramadol AE profile” value ([1]; trial B, same subjects) was −83%, the “pruritus, tramadol AE profile compared to the desmetramadol AE profile” value ([1]; trial B, same subjects) was −75% and the “somnolence, tramadol AE profile compared to the desmetramadol AE profile” value ([1]; trial B, same subjects) was −60%. The “vomiting, tramadol AE profile compared to the desmetramadol AE profile” value ([1]; trial B, same subjects) was −78%, the “subjects reporting drug-related AEs” value ([1]; trial B, with paroxetine) was 50% and the lethal dose [2] was > 5 grams. For the same molecule, the subjects experiencing nausea ([3]; EM group (11 EMs)) was 9%, the subjects experiencing nausea ([3]; UM group (11 UMs)) was ~50% and the “average duration of tolerance to pain” value (cold-induced pain; trial A) was 62 s. For the same molecule, the “Time to first pain, mean difference versus placebo” value (cold-induced pain; trial A (n = 43, males)) was 2.1 s, the “Time to withdrawal, mean difference versus placebo” value (cold-induced pain; trial A (n = 43, males)) was 12.4 (4.4) seconds and the “Pain intensity at 30 seconds, MPD versus placebo” value (cold-induced pain; [6]) was −0.46. For the same molecule, the “Pain intensity at first perception, MPD versus placebo” value (cold-induced pain; [6]) was −0.21, the “Time to withdrawal, mean difference versus placebo” value (cold-induced pain; trial A (n = 43, males), listed as TRAMADOL) was 12.4 s and the “Average (SD) subject-reported pain scores at 30 seconds” value (cold-induced pain; trial A, 0-10 VAS) was 6.0 (1.7). The “Time to first pain, MPD versus placebo” value (cold-induced pain; [7]) was 2.6 s, the “Time to withdrawal, MPD versus placebo” value (cold-induced pain; [7]) was 7.5 s and the “Pain intensity at 30 seconds, MPD versus placebo” value (cold-induced pain; [8]) was 0.03. For the same molecule, the “Pain intensity at first perception, MPD versus placebo” value (cold-induced pain; [8]) was 0.01, the “Time to first pain, MPD versus placebo” value (cold-induced pain; [9]) was 1.5 s and the “Time to withdrawal, MPD versus placebo” value (cold-induced pain; [9]) was 6.9 (1.6) seconds. For the same molecule, the “Pain intensity at 30 seconds, MPD versus placebo” value (cold-induced pain; [10]) was “failed to statistically differentiate from placebo”, the “Pain intensity at first perception, MPD versus placebo” value (cold-induced pain; [10]) was −0.08 and the “Pain intensity at 30 seconds, MPD versus placebo” value (cold-induced pain; trial B (n = 42, males), with paroxetine, 0-10 VAS, listed as TRAMADOL) was −0.25. For the same molecule, the “Time to withdrawal, MPD versus placebo” value (cold-induced pain; trial B (n = 42, males), with paroxetine, listed as TRAMADOL) was 6.9 s, the “pre-dose versus post-dose effect on respiratory rate compared to placebo or each other” value [4] was “no discernable pre-dose versus post-dose effect” and the “pupil diameter, mean paired reduction [SD] compared to placebo” value (pupil diameter) was −0.7 (0.6) millimeters.

In the case of `COc1cccc(C2(O)CCCCC2CN(C)C)c1` (single isomer, unassigned; (-)) [(−)-tramadol, 1S,2S-tramadol, reference compound], the “levels in trial B as % of levels in trial A” value [5] is reported as 200%.

With `COc1cccc([C@@]2(O)CCCC[C@@H]2CN(C)C)c1` [(+)-tramadol, 1R,2R-tramadol, reference compound] the “levels in trial B as % of levels in trial A” value [5] was 200%.

In the case of `COc1ccc2c3c1O[C@H]1C(=O)CC[C@H]4[C@@H](C2)N(C)CC[C@]314` [hydrocodone], the lethal oral dose [2] is given as 90 mg.

In the case of `COc1ccc2c3c1O[C@H]1C(=O)CC[C@@]4(O)[C@@H](C2)N(C)CC[C@]314` [oxycodone], the lethal oral dose [2] is listed as 40 mg.

— patent US11000488B2 (priority 2019, dated 2021)
